Holding throughout (test): NCI-60 cell line screen, 48 h
In experiment [1] the test system is MDA-MB-231 breast.
In experiment [2] the test system is MALME-3M melanoma.
Experiment [3] relates to OVCAR-5 ovarian.
The subject of experiment [4] is ACHN renal.
Experiment [5] has as its system SK-MEL-2 melanoma.
The test system of experiment [6] is OVCAR-8 ovarian.
Experiment [7] relates to CAKI-1 renal.
In experiment [8] the test system is BT-549 breast.

Where “and” joins values, the source holds several entries; their conditions need not be identical. Identical values can stand only once.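 Method: 48-hour compound exposure of cells in 96-well plates, five concentrations, linear interpolation of endpoints. GI50 marks 50% less growth. TGI: total growth inhibition.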

Consider `c1ccc(-c2n(Cc3ccc4ccccc4c3)cc[n+]2Cc2ccc3ccccc3c2)cc1`, for which the GI50 in experiment [1] is 1.07 µM; in experiment [2], 1.14 µM; in experiment [3], 1.36 µM; in experiment [4] it was 1.77 µM. For the same compound, the TGI in experiment [1] was 2.35 µM; in experiment [2], 2.56 µM; in experiment [3], 2.75 µM; in experiment [4], 3.43 µM.
Regarding `OCc1ccc(N2CCc3cc(F)ccc3C2)cc1Cl`, the GI50 in experiment [1] is 12.9 µM; in experiment [5], 0.375 µM; in experiment [2] it was 16.6 µM; in experiment [6], 7.31 µM; in experiment [7], 1.34 µM; in experiment [4], 11.8 µM. The GI50 in experiment [8] is 15.1 µM. Besides, the TGI came out at 26.2 µM in experiment [1]; 17.8 µM in experiment [5]; 31.8 µM in experiment [2]; 20.8 µM in experiment [6]; 13.6 µM in experiment [7]; 24.4 µM in experiment [4]. In experiment [8], this compound came in with a TGI of 28.7 µM.
On to `CCCCCCCCCC(CCCC(O)CC(=O)O)OC1OC(COC2OC(C)C(OC(C)=O)C(O)C2O)C(O)C(O)C1OC1OC(CO)C(O)C(O)C1OC1OC(C)C(OC(=O)CC(C)C)C(O)C1O` (configuration not stated), for which the GI50 in experiment [1], in experiment [2], in experiment [3], in experiment [6], in experiment [7] and in experiment [4] was over 35 µM each time. The GI50 in experiment [8] is over 35 µM. Further, the TGI in experiment [1], in experiment [2], in experiment [3], in experiment [6], in experiment [7] and in experiment [4] was over 35 µM in each case. The TGI in experiment [8] is over 35 µM.
For `COc1ccc(Cl)cc1Nc1nc(C(F)(F)F)ccc1C(=O)N/N=C/c1cccnc1`, the GI50 in experiment [1] is 4.51 µM; in experiment [5], 3.5 µM; in experiment [2], 2.55 µM; in experiment [6] it was 2.91 µM; in experiment [7] it was 3.84 µM; in experiment [4] it was 4.04 µM. For the same compound, in experiment [8], the GI50 is 1.99 µM. In addition, the TGI in experiment [1], in experiment [5], in experiment [2], in experiment [6], in experiment [7] and in experiment [4] was over 100 µM throughout. Also, in experiment [8], the TGI is over 100 µM.
As for `C/C(=N\n1c(O)c(C#N)cc(C#N)c1=O)c1ccncc1`, the GI50 in experiment [1], in experiment [5], in experiment [2], in experiment [3], in experiment [6] and in experiment [7] was over 100 µM in each case. The GI50 in experiment [4] was over 100 µM. Moreover, the TGI in experiment [1], in experiment [5], in experiment [2], in experiment [3], in experiment [6] and in experiment [7] was over 100 µM in each case. In experiment [4], this compound displayed a TGI of over 100 µM.
As to `COc1cccc2nc3ccccc3nc12`, the TGI was over 100 µM in experiment [1]; over 100 µM in experiment [2]; over 100 µM in experiment [3]; 69.1 µM in experiment [6]; over 100 µM in experiment [7]; 63.4 µM in experiment [4].
For `ClCc1ccc(Cn2cnc3c(Cl)ncnc32)cc1`, the GI50 in experiment [1] was 10.4 µM; in experiment [5] it was 19.7 µM; in experiment [3], 18.2 µM; in experiment [6], 16.5 µM; in experiment [7], 2.26 µM; in experiment [4], 4.04 µM. Further, in experiment [8], the GI50 is 21.9 µM. Also, the TGI in experiment [1] is 20.8 µM; in experiment [5], over 92.8 µM; in experiment [3], 34.7 µM; in experiment [6] it was 44.2 µM; in experiment [7], 8.78 µM; in experiment [4] it was 11.5 µM. For the same compound, in experiment [8], the TGI came to 45.8 µM.
As to `CCCCCC[C@@H](C)Nc1nc2ccccc2c2occc12`, the GI50 in experiment [1] is 10.8 µM; in experiment [5], 1.32 µM; in experiment [3] it was 14 µM; in experiment [6] it was 20.7 µM; in experiment [7], 13.6 µM; in experiment [4], 15.5 µM. The GI50 in experiment [8] was 3.05 µM. The TGI in experiment [1] is 22.7 µM; in experiment [5] it was 20.5 µM; in experiment [3], 27.4 µM; in experiment [6], over 100 µM; in experiment [7], 32.1 µM; in experiment [4], 28.8 µM. This compound returned a TGI in experiment [8] of 18.2 µM.
On to `CCOC(=O)c1c(NC(=O)c2ccccc2)sc2c3c(ccc12)OCN(C)C3`, for which the GI50 in experiment [1] was 1.85 µM; in experiment [5] it was 2.07 µM; in experiment [2] it was 1.78 µM; in experiment [3] it was 1.71 µM; in experiment [7], 1.59 µM; in experiment [4], 1.58 µM. Moreover, the GI50 in experiment [8] was 5.76 µM. Also, the TGI in experiment [1] is 3.52 µM; in experiment [5], 4.02 µM; in experiment [2], 3.43 µM; in experiment [3] it was 3.16 µM; in experiment [7], 2.99 µM; in experiment [4], 2.98 µM. The compound also came in with a TGI in experiment [8] of 19.5 µM.
Regarding `C[C@H](CS)C(=O)N1c2ccccc2C[C@H]1C(=O)O`, the TGI in experiment [1], in experiment [5], in experiment [3], in experiment [6], in experiment [7] and in experiment [4] was over 100 µM in each case. The same compound came in with a TGI in experiment [8] of over 100 µM.
Turning to `CC(=O)OC(C)(C)/C=C/C(=O)[C@](C)(O)[C@H]1[C@H](O)C[C@@]2(C)[C@@H]3CC=C4[C@@H](C=C(O)C(=O)C4(C)C)[C@]3(C)C(=O)C[C@]12C`, the TGI is 3.39 µM in experiment [1]; 64.9 nM [middle of 4 runs] in experiment [5]; 6.67 µM and 4.02 µM and 1.09 µM in experiment [3]; 5.35 µM and 2.14 µM and 3.28 µM in experiment [6]; 44 nM [middle of 4 runs] in experiment [7]; 0.25 µM and 0.0794 µM in experiment [4]. Also, the TGI in experiment [8] was 0.0846 µM. Also, in experiment [4], the GI50 was 0.0306 µM.

These data come from PubChem BioAssay (NCI).
